Test results taken from patent publication US20230355626A1, “INHIBITORS OF HUMAN IMMUNODEFICIENCY VIRUS REPLICATION” (VIIV HEALTHCARE UK (NO.5) LIMITED, priority 2020, published 2023).

Legend:
recombinant NL4-3 virus = test: HIV cell culture assay (antiviral activity, luciferase readout in infected MT-2 cells); format: cell-based; details: Human immunodeficiency virus 1, NL43, MT2
Protocol: HIV cell culture assay—MT-2 cells, 293T cells and the proviral DNA clone of NL4-3 virus were obtained from the NIH AIDS Research and Reference Reagent Program. MT-2 cells were propagated in RPMI 1640 media supplemented with 10% heat inactivated fetal bovine serum (FBS), 100 μg/ml penicillin G and up to 100 units/mL streptomycin. The 293T cells were propagated in DMEM media supplemented with 10% heat inactivated FBS, 100 μg/mL penicillin G and 100 μg/mL streptomycin. A recombinant NL4-3 proviral clone, in which a section of the nef gene was replaced with the Renilla luciferase gene, was used to make the reference virus used in these studies. The recombinant virus was prepared through transfection of the recombinant NL4-3 proviral clone into 293T cells using Transit-293 Transfection Reagent from Mirus Bio LLC (Madison, WI). Supernatant was harvested after 2-3 days and the amount of virus present was titered in MT-2 cells using luciferase enzyme activity as a marker by measuring luciferase enzyme activity. Luciferase was quantitated using the EnduRen Live Cell Substrate from Promega (Madison, WI). Antiviral activities of compounds toward the recombinant virus were quantified by measuring luciferase activity in MT-2 cells infected for 4-5 days with the recombinant virus in the presence of serial dilutions of the compound.
The 50% effective concentration (EC50) was calculated by using the exponential form of the median effect equation where (Fa)=1/[1+(ED50/drug conc.)m] (Johnson VA, Byington RT. Infectivity Assay. In Techniques in HIV Research. ed. Aldovini A, Walker BD. 71-76. New York: Stockton Press.1990). Curve fitting and analysis were performed with ActivityBase XE Runner software version 9.1.0.4 using model 203 (ID Business Solutions, LTD, Guildford, UK).

[1] = Compound cytotoxicity, XTT-based colorimetric assay; format: cell-based; details: human; uninfected MT2 cells, day 4, XTT assay
Protocol: Compound cytotoxicity and the corresponding CC50 values were determined using the same protocol as described in the antiviral assay except that uninfected cells were used. Cytotoxicity was assessed on day 4 in uninfected MT2 cells by using an XTT (2,3-bis[2-Methoxy-4-nitro-5-sulfophenyl]-2H-tetrazolium-5-carboxyanilide inner salt)-based colorimetric assay (Sigma-Aldrich, St Louis, Mo).

Row | SMILES | EC50 (recombinant NL4-3 virus) [nM] | CC50 at 4 day [1] [nM]
1 | Cn1nc(NS(C)(=O)=O)c2c(Cl)ccc(-n3c([C@H](Cc4cc(F)cc(F)c4)NC(=O)Cn4nc(C(F)F)c5c4C(F)(F)[C@@H]4C[C@H]54)nc4nc(OCc5nccn5C(F)F)ccc4c3=O)c21 (atropisomer, axis not shown; (P)) [Example 28, N-((S)-1-((3P)-3-(4-chloro-1-methyl-3-(methylsulfonamido)-1H-indazol-7-yl)-7-((1-(difluoromethyl)-1H-imidazol-2-yl)methoxy)-4-oxo-3,4-dihydropyrido[2,3-d]pyrimidin-2-yl)-2-(3,5-difluorophenyl)ethyl)-2-((3bS,4aR)-3-(difluoromethyl)-5,5-difluoro-3b,4,4a,5-tetrahydro-1H-cyclopropa[3,4]cyclopenta[1,2-c]pyrazol-1-yl)acetamide] | 0.87 | > 100
2 | Cn1nc(NS(C)(=O)=O)c2c(Cl)ccc(-n3c([C@H](Cc4cc(F)cc(F)c4)NC(=O)Cn4nc(C(F)F)c5c4C(F)(F)[C@@H]4C[C@H]54)nc4nc(OC5CC=CC5)ccc4c3=O)c21 (atropisomer, axis not shown; (P)) [Example 1, N-((S)-1-((3P)-3-(4-chloro-1-methyl-3-(methylsulfonamido)-1H-indazol-7-yl)-7-(cyclopent-3-en-1-yloxy)-4-oxo-3,4-dihydropyrido[2,3-d]pyrimidin-2-yl)-2-(3,5-difluorophenyl)ethyl)-2-((3bS,4aR)-3-(difluoromethyl)-5,5-difluoro-3b,4,4a,5-tetrahydro-1H-cyclopropa[3,4]cyclopenta[1,2-c]pyrazol-1-yl)acetamide] | 0.024 | > 100
3 | Cn1nc(NS(C)(=O)=O)c2c(Cl)ccc(-n3c([C@H](Cc4cc(F)cc(F)c4)NC(=O)Cn4nc(C(F)F)c5c4C(F)(F)[C@@H]4C[C@H]54)nc4nc(OCCC(F)(F)C(F)(F)F)ccc4c3=O)c21 (atropisomer, axis not shown; (P)) [Example 19, N-((S)-1-((3P)-3-(4-chloro-1-methyl-3-(methylsulfonamido)-1H-indazol-7-yl)-4-oxo-7-(3,3,4,4,4-pentafluorobutoxy)-3,4-dihydropyrido[2,3-d]pyrimidin-2-yl)-2-(3,5-difluorophenyl)ethyl)-2-((3bS,4aR)-3-(difluoromethyl)-5,5-difluoro-3b,4,4a,5-tetrahydro-1H-cyclopropa[3,4]cyclopenta[1,2-c]pyrazol-1-yl)acetamide] | 0.044 | > 100
4 | Cn1cc(CCOc2ccc3c(=O)n(-c4ccc(Cl)c5c(NS(C)(=O)=O)nn(C)c45)c([C@H](Cc4cc(F)cc(F)c4)NC(=O)Cn4nc(C(F)F)c5c4C(F)(F)[C@@H]4C[C@H]54)nc3n2)cn1 (atropisomer, axis not shown; (P)) [Example 12, N-((S)-1-((3P,3P)-3-(4-chloro-1-methyl-3-(methylsulfonamido)-1H-indazol-7-yl)-7-(2-(1-methyl-1H-pyrazol-4-yl)ethoxy)-4-oxo-3,4-dihydropyrido[2,3-d]pyrimidin-2-yl)-2-(3,5-difluorophenyl)ethyl)-2-((3bS,4aR)-3-(difluoromethyl)-5,5-difluoro-3b,4,4a,5-tetrahydro-1H-cyclopropa[3,4]cyclopenta[1,2-c]pyrazol-1-yl)acetamide] | 0.14 | > 100
5 | Cn1nc(NS(C)(=O)=O)c2c(Cl)ccc(-n3c([C@H](Cc4cc(F)cc(F)c4)NC(=O)Cn4nc(C(F)F)c5c4C(F)(F)[C@@H]4C[C@H]54)nc4nc(OC5CC(F)(F)C5)ccc4c3=O)c21 (atropisomer, axis not shown; (P)) [Example 30, N-[(1S)-1-[(3P)-3-(4-chloro-3-methanesulfonamido-1-methyl-1H-indazol-7-yl)-7-(3,3-difluorocyclobutoxy)-4-oxo-3H,4H-pyrido[2,3-d]pyrimidin-2-yl]-2-(3,5-difluorophenyl)ethyl]-2-[(2S,4R)-9-(difluoromethyl)-5,5-difluoro-7,8-diazatricyclo[4.3.0.0^2,^4]nona-1(6),8-dien-7-yl]acetamide] | 0.031 | > 500
6 | Cn1nc(NS(C)(=O)=O)c2c(Cl)ccc(-n3c([C@H](Cc4cc(F)cc(F)c4)NC(=O)Cn4nc(C(F)F)c5c4C(F)(F)[C@@H]4C[C@H]54)nc4nc(OCCC5CC5(F)F)ccc4c3=O)c21 (stereo partly drawn) [Example 38, N-((1S)-1-((3P,3P)-3-(4-chloro-1-methyl-3-(methylsulfonamido)-1H-indazol-7-yl)-7-(2-(2,2-difluorocyclopropyl)ethoxy)-4-oxo-3,4-dihydropyrido[2,3-d]pyrimidin-2-yl)-2-(3,5-difluorophenyl)ethyl)-2-((3bS,4aR)-3-(difluoromethyl)-5,5-difluoro-3b,4,4a,5-tetrahydro-1H-cyclopropa[3,4]cyclopenta[1,2-c]pyrazol-1-yl)acetamide] | 0.037 | > 100
7 | COC(C)(C)CCOc1ccc2c(=O)n(-c3ccc(Cl)c4c(NS(C)(=O)=O)nn(C)c34)c([C@H](Cc3cc(F)cc(F)c3)NC(=O)Cn3nc(C(F)F)c4c3C(F)(F)[C@@H]3C[C@H]43)nc2n1 (atropisomer, axis not shown; (P)) [Example 15, N-((S)-1-((3P)-3-(4-chloro-1-methyl-3-(methylsulfonamido)-1H-indazol-7-yl)-7-(3-methoxy-3-methylbutoxy)-4-oxo-3,4-dihydropyrido[2,3-d]pyrimidin-2-yl)-2-(3,5-difluorophenyl)ethyl)-2-((3bS,4aR)-3-(difluoromethyl)-5,5-difluoro-3b,4,4a,5-tetrahydro-1H-cyclopropa[3,4]cyclopenta[1,2-c]pyrazol-1-yl)acetamide] | 0.019 | > 500
8 | Cn1nc(NS(C)(=O)=O)c2c(Cl)ccc(-n3c([C@H](Cc4cc(F)cc(F)c4)NC(=O)Cn4nc(C(F)F)c5c4C(F)(F)[C@@H]4C[C@H]54)nc4nc(OCc5cccnc5)ccc4c3=O)c21 (atropisomer, axis not shown; (P)) [Example 3, N-[(1S)-1-[(3P)-3-(4-chloro-3-methanesulfonamido-1-methyl-1H-indazol-7-yl)-4-oxo-7-[(pyridin-3-yl)methoxy]-3H,4H-pyrido[2,3-d]pyrimidin-2-yl]-2-(3,5-difluorophenyl)ethyl]-2-[(2S,4R)-9-(difluoromethyl)-5,5-difluoro-7,8-diazatricyclo[4.3.0.0^2,^4]nona-1(6),8-dien-7-yl]acetamide] | 0.048 | > 100
9 | Cn1nc(NS(C)(=O)=O)c2c(Cl)ccc(-n3c([C@H](Cc4cc(F)cc(F)c4)NC(=O)Cn4nc(C(F)F)c5c4C(F)(F)[C@@H]4C[C@H]54)nc4nc(OCc5ccn(CC(F)(F)F)n5)ccc4c3=O)c21 (atropisomer, axis not shown; (P)) [Example 24, N-((S)-1-((3P)-3-(4-chloro-1-methyl-3-(methylsulfonamido)-1H-indazol-7-yl)-4-oxo-7-((1-(2,2,2-trifluoroethyl)-1H-pyrazol-3-yl)methoxy)-3,4-dihydropyrido[2,3-d]pyrimidin-2-yl)-2-(3,5-difluorophenyl)ethyl)-2-((3bS,4aR)-3-(difluoromethyl)-5,5-difluoro-3b,4,4a,5-tetrahydro-1H-cyclopropa[3,4]cyclopenta[1,2-c]pyrazol-1-yl)acetamide] | 0.057 | > 100
10 | Cn1nc(NS(C)(=O)=O)c2c(Cl)ccc(-n3c([C@H](Cc4cc(F)cc(F)c4)NC(=O)Cn4nc(C(F)F)c5c4C(F)(F)[C@@H]4C[C@H]54)nc4nc(OCC(F)(F)C(F)(F)C(F)(F)C(F)(F)F)ccc4c3=O)c21 (atropisomer, axis not shown; (P)) [Example 40, N-((S)-1-((3P,3P)-3-(4-chloro-1-methyl-3-(methylsulfonamido)-1H-indazol-7-yl)-7-((2,2,3,3,4,4,5,5,5-nonafluoropentyl)oxy)-4-oxo-3,4-dihydropyrido[2,3-d]pyrimidin-2-yl)-2-(3,5-difluorophenyl)ethyl)-2-((3bS,4aR)-3-(difluoromethyl)-5,5-difluoro-3b,4,4a,5-tetrahydro-1H-cyclopropa[3,4]cyclopenta[1,2-c]pyrazol-1-yl)acetamide] | 0.31 | > 100
11 | Cn1nc(NS(C)(=O)=O)c2c(Cl)ccc(-n3c([C@H](Cc4cc(F)cc(F)c4)NC(=O)Cn4nc(C(F)F)c5c4C(F)(F)[C@@H]4C[C@H]54)nc4nc(OCCC(C)(C)C(F)(F)F)ccc4c3=O)c21 (atropisomer, axis not shown; (P)) [Example 4, N-((S)-1-((3P)-3-(4-chloro-1-methyl-3-(methylsulfonamido)-1H-indazol-7-yl)-4-oxo-7-(4,4,4-trifluoro-3,3-dimethylbutoxy)-3,4-dihydropyrido[2,3-d]pyrimidin-2-yl)-2-(3,5-difluorophenyl)ethyl)-2-((3bS,4aR)-3-(difluoromethyl)-5,5-difluoro-3b,4,4a,5-tetrahydro-1H-cyclopropa[3,4]cyclopenta[1,2-c]pyrazol-1-yl)acetamide] | 0.078 | > 200
